Read-outs that look alike come from different tables or passages of the source.

One data set concerns the target GLP1R (Homo sapiens, UniProt P43220). The experiment in a line: In vitro cellular cAMP expression activity assay (CRE-luciferase reporter). It is filed as cell-based. The settings on record: HEK293/CRE-Luc/GLP1R cells, 6 h incubation, luciferase luminescence; read-out: HEK293/CRE-Luc/GLP-1R EC50. Here is the method:
HEK293/CRE-Luc/GLP1R cells (manufacturer: GenScript Biotech Corporation) in a good growth state were taken, washed with PBS, and digested with pancreatin. The digestion was terminated with a complete medium. The cells were collected into a centrifuge tube, adjusted to a cell density of 4×10^5 cells/mL using a DMEM+2% FBS medium, seeded in a 96-well plate (100 μL/well), and incubated at 37° C. for 1 h. After 1 h, the compounds were added using a nanoliter pipettor such that the final concentrations of the compounds were 10 nM-0.0006 nM. The compounds were added in duplicate, and a control was set. After the cells were incubated in a cell incubator for another 6 h, a detection reagent Luciferase (manufacturer: Vazyme Biotech, 50 μL/well) was added. The plate was left to stand at room temperature for 3 min to fully lyse the cells, and the luminescence was detected on a PerkinElmer Envision microplate reader. A dose-response curve was fitted by four-parameter analysis, and the EC50 was calculated.

A short description of data set [1]: In vitro stability assay in liver microsome (HLM). The format is in vitro ADME, human. The settings on record: liver microsome 0.5 mg/mL, NADPH+MgCl2, PBS pH 7.4, 1 h. As for the experimental part:
(§1) Liver microsome incubation samples were prepared by mixing a PBS buffer (pH 7.4), a liver microsome solution (0.5 mg/mL), a test compound, and an NADPH+MgCl2 solution, and incubated at […] and 300 rpm for 1 h. Zero-hour samples were prepared by mixing a PBS buffer (pH 7.4), a liver microsome solution (0.5 mg/mL), and a test compound. An acetonitrile solution containing an internal standard was added to the samples, and supernatants were prepared by protein precipitation, diluted, and then assayed by LC/MS/MS.

Data set [2] can be described thus: In vitro stability assay in liver microsome (MLM). It is filed as in vitro ADME, mouse. The settings on record: liver microsome 0.5 mg/mL, NADPH+MgCl2, PBS pH 7.4, 1 h. Here is the method: as §1
Data set [3] in a line: In vivo pharmacokinetic evaluation in mice. The settings on record: mouse, plasma, ICR mice; for bioavailability: ig 3 mg/kg vs iv 0.5 mg/kg, read-out: Absolute bioavailability F; for MRT last: read-out: MRT(0-24); for half-life: read-out: t½ (converted); for AUC(0-t): read-out: AUC(0-24). As for the experimental part: ICR mice of 18-22 g were randomized into 4 groups of 9 mice after 3-5 days of acclimatization. […]
The test animals (ICR mice) were fasted from 12 h pre-dose to 4 h post-dose, and given free access to water throughout the study.
Orbital blood samples of about 0.1 mL were collected at 15 min, 30 min, 1 h, 2 h, 3 h, 4 h, 6 h, 8 h, 10 h, and 24 h post-dose for the intragastric administration, and at 5 min, 10 min, 30 min, 1 h, 2 h, 4 h, 6 h, 8 h, 10 h, and 24 h post-dose for the intravenous administration. The blood sampling was performed at 3-4 time points for each mouse, 3 mice per time point. The collected whole blood was transferred into EDTA-K2-containing centrifuge tubes and stored at 4° C., and, within 1 h, centrifuged at 4° C. at 4000 rpm for 10 min to separate the plasma. All the plasma samples were immediately stored after collection at −20° C. for testing.
30 μL of the plasma sample to be tested and a standard curve sample were pipetted and added with 300 μL of an acetonitrile solution containing an internal standard (20 ng/mL of diazepam). The mixture was shaken to mix well for 5 min, and centrifuged at 13,000 rpm for 10 min. 80 μL of the supernatant was taken and diluted with 80 μL of ultrapure water. After a thorough mixing, 2 μL of the resulting sample was taken for liquid chromatography-mass spectrometry, and the chromatogram was recorded.

GLP1R, sequence (P43220 24-463): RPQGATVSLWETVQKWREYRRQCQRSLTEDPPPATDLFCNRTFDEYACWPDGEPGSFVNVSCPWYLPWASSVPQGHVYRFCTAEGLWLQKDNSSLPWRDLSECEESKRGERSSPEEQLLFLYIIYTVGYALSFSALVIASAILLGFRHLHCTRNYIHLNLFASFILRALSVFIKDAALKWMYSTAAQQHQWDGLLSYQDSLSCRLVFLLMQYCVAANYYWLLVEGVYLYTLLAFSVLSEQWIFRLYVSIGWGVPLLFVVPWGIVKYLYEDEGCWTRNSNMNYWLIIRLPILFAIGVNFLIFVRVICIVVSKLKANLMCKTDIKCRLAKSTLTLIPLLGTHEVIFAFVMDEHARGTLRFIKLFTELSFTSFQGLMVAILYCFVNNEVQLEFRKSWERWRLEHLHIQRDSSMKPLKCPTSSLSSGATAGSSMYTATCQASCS

`C[C@H]1c2c(nn(-c3ccc(F)c(C4CC4)c3)c2-n2ccn(-c3ccc4c(c3)C3(CC3)C(=O)N4C)c2=O)CCN1C(=O)c1cc2cc(C3CCOC(C)(C)C3)ccc2n1[C@@]1(c2nc(=O)o[nH]2)C[C@@H]1C` (single isomer, unassigned) [Compound 6]: the EC50 at GLP1R is less than 0.5 nM.
On to `C[C@H]1c2c(nn(-c3ccc(F)c(C4CC4)c3)c2-n2ccn(-c3ccc4c(c3)N(C)C(=O)C43CC3)c2=O)CCN1C(=O)c1cc2cc(C3CCOC(C)(C)C3)ccc2n1C1(c2noc(=O)[nH]2)CC1` (single isomer, unassigned) [Compound 20], for which the EC50 on GLP1R was less than 0.5 nM. The “HLM Remaining (T = 60 min)” value in data set [1] was determined as 95.39%. Moreover, in data set [2], the “MLM Remaining (T = 60 min)” value stood at 77.59%.
With `Cc1cc(-n2nc3c(c2-n2ccn(-c4ccc5c(c4)C4(CCC4)C(=O)N5C)c2=O)[C@H](C)N(C(=O)c2cc4cc(C5CCOC(C)(C)C5)ccc4n2[C@@]2(c4nc(=O)o[nH]4)C[C@@H]2C)CC3)cc(C)c1F` (single isomer, unassigned) [Compound 21], the EC50 on GLP1R is less than 0.5 nM.
The same measure, in the same setting: then `Cc1cc(-n2nc3c(c2-n2ccn(-c4ccc5c(c4)C4(CC4)C(=O)N5C)c2=O)C(C)N(C(=O)c2cc4cc(C5CCOC(C)(C)C5)ccn4c2C2(c4noc(=O)[nH]4)CC2C)CC3)cc(C)c1F` (single isomer, unassigned) [Compound 22-A], with less than 0.5 nM; and `Cc1cc(-n2nc3c(c2-n2ccn(-c4ccc5c(c4)C4(CC4)C(=O)N5C)c2=O)[C@H](C)N(C(=O)c2cc4cc([C@H]5CCOC(C)(C)C5)ccc4n2[C@@]2(c4noc(=O)[nH]4)C[C@@H]2C)CC3)cc(C)c1F` [Compound 1-A], with less than 0.5 nM.
On to `[2H]C([2H])([2H])N1C(=O)C2(CC2)c2cc(-n3ccn(-c4c5c(nn4-c4cc(C)c(F)c(C)c4)CCN(C(=O)c4cc6cc([C@H]7CCOC(C)(C)C7)ccc6n4[C@@]4(c6noc(=O)[nH]6)C[C@@H]4C)[C@H]5C)c3=O)ccc21` [Compound 2], for which the EC50 at GLP1R is less than 0.5 nM. In addition, the “HLM Remaining (T = 60 min)” value in data set [1] worked out at 88.76%. Further, the “MLM Remaining (T = 60 min)” value in data set [2] was 88.89%. Besides, the bioavailability in data set [3] (po) worked out at 43.9%. For the same compound, in data set [3] (po, ig, dose 3 mg/kg), the MRT last worked out at 7.73 h, the half-life was 3.53 h, the AUC(0-inf) was 4880 ng·h/mL and the AUC(0-t) is 4790 ng·h/mL. In data set [3] (iv, dose 0.5 mg/kg), the MRT last came out at 5.13 h, the half-life was 4.1 h, the AUC(0-inf) worked out at 1850 ng·h/mL and the AUC(0-t) turned out to be 1820 ng·h/mL.
On to `Cc1cc(-n2nc3c(c2-n2ccn(-c4ccc5c(c4)C4(CC4)C(=O)N5C4CC4)c2=O)[C@H](C)N(C(=O)c2cc4cc([C@H]5CCOC(C)(C)C5)ccc4n2[C@@]2(c4noc(=O)[nH]4)C[C@@H]2C)CC3)cc(C)c1F` [Compound 3], for which the EC50 at GLP1R is less than 0.5 nM. Moreover, in data set [1], the “HLM Remaining (T = 60 min)” value worked out at 80.83%. For the same compound, the “MLM Remaining (T = 60 min)” value in data set [2] turned out to be 90.13%. For the same compound, in data set [3] (po), the bioavailability worked out at 33.7%. Besides, in data set [3] (po, ig, dose 3 mg/kg), the MRT last turned out to be 8.42 h, the half-life is 4.15 h, the AUC(0-inf) worked out at 4960 ng·h/mL and the AUC(0-t) is 4800 ng·h/mL. In addition, in data set [3] (iv, dose 0.5 mg/kg), the MRT last turned out to be 6.13 h, the half-life is 5.73 h, the AUC(0-inf) is 2450 ng·h/mL and the AUC(0-t) amounted to 2360 ng·h/mL.
Consider `Cc1cc(-n2nc3c(c2-n2ccn(-c4ccc5c(c4)C4(CC4)C(=O)N5C)c2=O)[C@H](C)N(C(=O)c2cc4cc([C@H]5CCOC(C)(C)C5)ccc4n2C2(c4noc(=O)[nH]4)CC2)CC3)cc(C)c1F` [Compound 4], for which, on GLP1R, the EC50 was less than 0.5 nM. Moreover, in data set [1], the “HLM Remaining (T = 60 min)” value is on record as 91.85%. Further, in data set [2], the “MLM Remaining (T = 60 min)” value is listed as 95.46%.
On to `Cc1cc(-n2nc3c(c2-n2ccn(-c4ccc5nc6n(c5c4)CCN(C)C6)c2=O)[C@H](C)N(C(=O)c2cc4cc([C@H]5CCOC(C)(C)C5)ccc4n2[C@@]2(c4noc(=O)[nH]4)C[C@@H]2C)CC3)cc(C)c1F` [Compound 7], for which the EC50 on GLP1R was less than 0.5 nM.
Take `Cc1cc(-n2nc3c(c2-n2ccn(-c4ccc5nc6n(c5c4)CCC6)c2=O)[C@H](C)N(C(=O)c2cc4cc([C@H]5CCOC(C)(C)C5)ccc4n2[C@@]2(c4noc(=O)[nH]4)C[C@@H]2C)CC3)cc(C)c1F` [Compound 8]: on GLP1R, the EC50 is less than 0.5 nM.
Regarding `Cc1cc(-n2nc3c(c2-n2ccn(-c4ccc5c(c4)C(=O)C4(CC4)C5)c2=O)[C@H](C)N(C(=O)c2cc4cc([C@H]5CCOC(C)(C)C5)ccc4n2[C@@]2(c4noc(=O)[nH]4)C[C@@H]2C)CC3)cc(C)c1F` [Compound 9-A], at GLP1R, the EC50 was less than 0.5 nM.
`COCC#Cc1ccc(-n2ccn(-c3c4c(nn3-c3cc(C)c(F)c(C)c3)CCN(C(=O)c3cc5cc([C@H]6CCOC(C)(C)C6)ccc5n3[C@@]3(c5noc(=O)[nH]5)C[C@@H]3C)[C@H]4C)c2=O)c(F)c1` [Compound 10-A]: the EC50 at GLP1R was less than 0.5 nM.
On the same count and under the same terms, then `Cc1cc(-n2nc3c(c2-n2ccn(-c4ccc5c(c4)CC4(COC4)C5)c2=O)[C@H](C)N(C(=O)c2cc4cc([C@H]5CCOC(C)(C)C5)ccc4n2[C@@]2(c4noc(=O)[nH]4)C[C@@H]2C)CC3)cc(C)c1F` [Compound 12-A], with less than 0.5 nM.
For the compound `[2H]C([2H])([2H])N1C(=O)C2(CC2)c2ccc(-n3ccn(-c4c5c(nn4-c4cc(C)c(F)c(C)c4)CCN(C(=O)c4cc6cc([C@H]7CCOC(C)(C)C7)ccc6n4[C@@]4(c6noc(=O)[nH]6)C[C@@H]4C)[C@H]5C)c3=O)cc21` [Compound 13], on GLP1R, the EC50 was less than 0.5 nM. For the same compound, the “HLM Remaining (T = 60 min)” value in data set [1] is 84.57%. In data set [2], the “MLM Remaining (T = 60 min)” value is on record as 84.44%.
On to `Cc1cc(-n2nc3c(c2-n2ccn(-c4cc(F)c5c(c4)N(C)C(=O)C54CC4)c2=O)[C@H](C)N(C(=O)c2cc4cc([C@H]5CCOC(C)(C)C5)ccc4n2[C@@]2(c4noc(=O)[nH]4)C[C@@H]2C)CC3)cc(C)c1F` [Compound 16], for which the EC50 on GLP1R was less than 0.5 nM.
As to `Cc1cc(-n2nc3c(c2-n2ccn(-c4ccc5c(c4)N(C4CC4)C(=O)C54CC4)c2=O)[C@H](C)N(C(=O)c2cc4cc([C@H]5CCOC(C)(C)C5)ccc4n2[C@@]2(c4noc(=O)[nH]4)C[C@@H]2C)CC3)cc(C)c1F` [Compound 17], at GLP1R, the EC50 was less than 0.5 nM.
As to `Cc1cc(-n2nc3c(c2-n2ccn(-c4ccc5c(c4)N(C)C(=O)C54CC4)c2=O)[C@H](C)N(C(=O)c2cc4cc([C@H]5CCOC(C)(C)C5)ccc4n2C2(c4noc(=O)[nH]4)CC2)CC3)cc(C)c1F` [Compound 19], on GLP1R, the EC50 is less than 0.5 nM. In addition, the “HLM Remaining (T = 60 min)” value in data set [1] amounted to 92.40%. Moreover, the “MLM Remaining (T = 60 min)” value in data set [2] is 77.17%.
For the compound `C[C@H]1c2c(nn(-c3ccc(F)c(C4CC4)c3)c2-n2ccn(-c3ccc4c(c3)C3(CC3)C(=O)N4C)c2=O)CCN1C(=O)c1cc2cc([C@H]3CCOC(C)(C)C3)ccn2c1[C@@]1(c2noc(=O)[nH]2)C[C@@H]1C` [Compound 24], the EC50 on GLP1R is less than 0.5 nM.
As for `C[C@H]1c2c(nn(-c3ccc(F)c(C4CC4)c3)c2-n2ccn(-c3ccc4c(c3)CC3(CC3)C4=O)c2=O)CCN1C(=O)c1cc2cc([C@H]3CCOC(C)(C)C3)ccc2n1[C@@]1(c2noc(=O)[nH]2)C[C@@H]1C` [Compound 26], at GLP1R, the EC50 is less than 0.5 nM.

The record behind these values is patent publication US20260098037A1, “COMPOUND CONTAINING MULTI-FUSED RING STRUCTURE” (Chia Tai Tianqing Pharmaceutical Group Co., Ltd., priority 2023, published 2026).
